Legend:
UC9 cells = experiment: In vitro binding of [^68Ga]AJ647 to UC9 cells; assay type: cell-based; conditions: 1 × 10^6 cells, ~1 μCi, 30 min, 4°C, means ± SD, n = 4
Procedure: In vitro binding of [^68Ga]AJ647 to T24, SCaBER, RT112, UC9, UC14, and HT1376 cells was determined by incubating 1 × 10^6 cells with ~1 μCi of [^68Ga]AJ647 for 30 min at 4°C. After incubation, cells were washed three times with ice-cold PBS containing 0.1% Tween 20 and counted on an automated gamma counter. All cell radioactivity uptake studies were performed in quadruplicate for each cell line and repeated three times.

HT1376 tumor xenograft = experiment: TE and EV therapy response study, HT1376 xenograft; assay type: in vivo, NSG mice; conditions: for mice showing a drop in [^68Ga]AJ647 uptake: day 6
Procedure: Mice with tumor volumes of ~100 to 150 mm^3 were injected with ~200 μCi [7.4 megabecquerels (MBq)] of [^68Ga]AJ647 in […] of 5% ethanol in saline intravenously and anesthetized under 2.5% isoflurane. PET-computed tomography (CT) images were acquired at 60 min after radiotracer injection at 5 min per bed in an ARGUS small-animal PET/CT scanner (Sedecal, Madrid, Spain) as described previously (n = 3, unless otherwise noted). PET-MR images were acquired on a simultaneous 7T Bruker PET-MR scanner. Dynamic imaging was conducted to evaluate the PK of [^68Ga]AJ647. [^68Ga]AJ647 was injected (with the help of a catheter) after mice were anesthetized under 2.5% isoflurane on the equipment bed. All PET data were reconstructed using the two-dimensional (2D) ordered subset expectation maximization algorithm and corrected for radioactive decay and dead times. The SUV values were calculated by finding %IA on the basis of a calibration factor obtained from a known radioactive quantity and then normalizing by mice weight. Amide software was used to derive SUV values by drawing the region of interest to closely fit tumors. In particular, MR images were used to identify tumor boundaries manually; these boundaries were transferred to co-registered PET images to derive SUVs. This process was repeated for each mouse individually in a blinded fashion. For the change in accessible Nectin-4 following EV treatment, ΔSUV was calculated by subtracting baseline (pre-treatment) uptake from posttherapy uptake of [^68Ga]AJ647. TE was quantified by normalizing this change by initial SUV in the same subject controls. Image fusion, visualization, and 3D rendering were accomplished using Amira 2020.3.1 (FEI, Hillsboro, OR).
Male NSG (n = 35) mice were inoculated with 4 million HT1376 cells at day 0. On day 23 (average tumor volume, 170 ± 22 mm^3), mice were randomized to receive either saline or a single dose of EV (6 or 15 mg/kg) intravenously (n = 10 for each group). Mice (n = 10) from each dose group were imaged on days 22 (pre-EV) and 29 (6 days post-EV). Saline mice (n = 5) were imaged on day 25 to serve as temporal and treatment control. Mouse body weight and tumor measurements were recorded until saline group tumors reached 1500 mm^3 in average size. Responders and nonresponders were identified using mRECIST for mice published elsewhere ([34]). Briefly, the percentage change in volume relative to the baseline: % tumor volume change (ΔVolt) = 100% × [(Vt − Vinitial)/Vinitial]. BestResponse was the lowest ΔVolt for t ≥ 10 days. For each time t, the average ΔVolt from t = 0 to t was calculated, with the BestAvgResponse defined as the lowest average ΔVolt for t ≥ 10 days. mRECIST, adapted from RECIST21, assigned response labels when both the BestResponse and BestAvgResponse conditions are met at the same time. A modified complete response is defined when BestResponse is less than −95% and BestAvgResponse is less than −40%. A modified partial response is assigned when BestResponse is less than −50% and BestAvgResponse is less than −20%. Modified stable disease is defined when BestResponse is less than 35% and BestAvgResponse is less than 30%. Modified progressive disease is assigned when none of these criteria are satisfied.
We defined modified progressive disease as nonresponders (0 response) and stable disease or better as responders (1 response). […]

Compound | [^68Ga]AJ647 uptake (UC9 cells) | mice showing a drop in [^68Ga]AJ647 uptake (HT1376 tumor xenograft; EV 6 mg/kg) | mice showing a drop in [^68Ga]AJ647 uptake (HT1376 tumor xenograft; EV 15 mg/kg) | final tumor volume (HT1376 tumor xenograft; EV-treated mice with higher TE, in mm³ (unit assumed)) | final tumor volume (HT1376 tumor xenograft; EV-treated mice with less than 30% TE) | tumor growth (HT1376 tumor xenograft; single dose EV 6 or 15 mg/kg, n = 10 per group, more pronounced at 15 mg/kg)
CSCC[C@@H]1NC(=O)[C@@H]2CSCCC(=O)N3CN(CN(C3)C(=O)CCSC[C@H](NC(=O)CCOCCOCCOCCOCCOCCOCCOCCOCCOCCOCCOCCOCCNC(=O)CN3CCN(CC(=O)O)CCN(CC(=O)O)CC3)C(=O)N3CCC[C@H]3C(=O)N[C@@H](Cc3cccc4ccccc34)C(=O)N[C@@H](CC(=O)O)C(=O)N2)C(=O)CCSC[C@@H](C(N)=O)NC(=O)[C@H](Cc2c[nH]c3ccccc23)NC(=O)[C@@H]2C[C@@H](O)CN2C(=O)[C@@H]2CCCN2C(=O)[C@H]([C@@H](C)O)NC(=O)[C@H](CO)NC(=O)[C@H](Cc2c[nH]c3ccccc23)NC(=O)[C@@H](CC(=O)O)NC(=O)[C@H](CCCCNC(=N)N)NC1=O [[^68Ga]AJ647, metal not drawn] | 2.2 ± 0.48 %IA |  |  |  |  | 
enfortumab vedotin [EV] |  | 5 of 10 | 9 of 10 | 324.9 ± 194.6 | 759.4 ± 455 | Tumor growth inhibition was observed in both groups
